According to patent publication US4882272A, “High molecular weight kininogen assay” (Temple University - of the Commonwealth System of Higher …, priority 1987, dated 1989):
Peptide text beside a SMILES is read from it.

Molecular target: T1, human factor XIa (Homo sapiens, UniProt P03951)
T1 construct: converted to the active enzyme factor XIa by factor XIIa
Experiment: Hydrolysis of chromogenic substrate S-2366 by factor XIa
Assay type: biochemical
Protocol: According to one embodiment, a chromogenic substrate for factor XIa is incubated with the assay reaction mixture. The substrate should, under the conditions of the assay, be capable of hydrolysis by factor XIa to yield a hydrolysis product whose appearance may be monitored spectrophotometrically or by a microplate reader. Such substrates include, for example, L-pyroglutamyl-L-prolyl-L-arginine-p-nitroanilide and H-D-leucylthreonyl-arginine-p-nitroanilide, available from KabiVitrum in hydrochloride form as "S-2366" and "S-2511", respectively. The enzymatic activity of factor XIa catalyzes the hydrolysis of the peptide-p-nitroanilide bond, releasing the chromophore p-nitroaniline. The appearance of p-nitroaniline may be measured spectrophotometrically after a fixed hydrolysis time, at 405 nm. The change in absorbance is proportional to the enzyme activity.
S-2366 is the preferred substrate.

T1 sequence (P03951 388-625 limits assumed): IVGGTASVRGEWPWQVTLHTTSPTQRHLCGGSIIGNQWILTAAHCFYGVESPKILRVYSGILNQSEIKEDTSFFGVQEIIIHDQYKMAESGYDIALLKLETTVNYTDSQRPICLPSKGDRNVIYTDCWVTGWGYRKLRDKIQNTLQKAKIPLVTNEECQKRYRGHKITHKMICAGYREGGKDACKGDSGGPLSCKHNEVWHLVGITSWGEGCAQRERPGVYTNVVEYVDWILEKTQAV
T1 sequence (P03951 19-387 partner limits assumed): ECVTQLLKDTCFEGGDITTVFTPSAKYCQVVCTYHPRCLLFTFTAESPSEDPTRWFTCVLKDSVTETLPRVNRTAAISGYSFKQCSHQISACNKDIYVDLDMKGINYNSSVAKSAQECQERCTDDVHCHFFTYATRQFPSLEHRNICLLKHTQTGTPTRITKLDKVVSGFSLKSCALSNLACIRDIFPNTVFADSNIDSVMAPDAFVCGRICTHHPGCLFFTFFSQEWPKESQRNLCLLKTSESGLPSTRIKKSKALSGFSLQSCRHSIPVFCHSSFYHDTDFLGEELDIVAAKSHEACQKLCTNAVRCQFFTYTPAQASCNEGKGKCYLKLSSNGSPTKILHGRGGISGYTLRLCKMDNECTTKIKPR

## N=C(N)NCCC[C@H](NC(=O)[C@@H]1CCCN1C(=O)[C@@H]1CCC(=O)N1)C(=O)Nc1ccc([N+](=O)[O-])cc1 [S-2366, L-pyroglutamyl-L-prolyl-L-arginine-p-nitroanilide] (HELM PEPTIDE1{[Glp].P.R.[O=[N+]([O-])c1ccc(N[*:1])cc1]}$$$$V2.0)
  Kcat to Km ratio: 5.5e+06 M⁻¹ s⁻¹
